The record followed here is ChEMBL document CHEMBL1138308, “Synthesis and antibacterial activity of potent heterocyclic oxazolidinones and the identification of RBx 8700” (2007).

Converted amounts (≈) assume the structure as drawn.

For this experiment, the system named is Mycobacterium tuberculosis. In words: Antibacterial activity against multi drug resistant Mycobacterium tuberculosis. Format: functional.

In turn, `CC(=O)NC[C@H]1CN(c2ccc(N3CCN(c4ccc([N+](=O)[O-])s4)CC3)c(F)c2)C(=O)O1` gave an MIC90 of 1 µg/mL (≈ 2.16 µM).

The term MIC90 denotes the lowest concentration that inhibits either 90% of growth or 90% of the strains tested, depending on the study. A higher MIC90 goes with lower susceptibility.
